This note sets out measurements from PubChem BioAssay (NCI).

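Results reflect a 48-hour exposure of cells in 96-well plates to compound at five concentrations. At the TGI there is no net growth.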

Among the test systems are SK-MEL-5 melanoma; SNB-75 CNS; SR leukemia; HCC-2998 colon; HCT-15 colon; A549 NSCLC; SF-268 CNS; SF-295 CNS; HT29 colon; UACC-257 melanoma; 786-0 renal.
Test in all cases: inhibition of tumour cell growth, NCI panel, 48 h

For the compound `C=C1CCN2CC[C@@H](OC(=O)/C(C)=C\C)[C@@H]12`, the TGI in the test on SK-MEL-5 melanoma, in the test with SNB-75 CNS, with SR leukemia, with HCC-2998 colon, with HCT-15 colon and in the test on A549 NSCLC was above 100 µM each time. The TGI in the test on SF-268 CNS, in the test with SF-295 CNS, in the test with HT29 colon, in the test on UACC-257 melanoma and in the test on 786-0 renal was above 100 µM in each case.
Regarding `Cn1c2ccc3cc2c(=S)c2cc(ccc21)OCCOCCOCCOCCOCCOCCO3`, the TGI in the test on SK-MEL-5 melanoma, in the test on SNB-75 CNS, with SR leukemia, in the test on HCC-2998 colon, with HCT-15 colon and in the test with A549 NSCLC was above 10 µM each time. The TGI in the test with SF-268 CNS, in the test with SF-295 CNS, in the test on HT29 colon, in the test on UACC-257 melanoma and in the test on 786-0 renal was above 10 µM each time.
`COc1ncc(/C=C2\OC(=O)c3ccccc32)c(OC)n1`: the TGI in the test on SK-MEL-5 melanoma is 58.7 µM; in the test on SNB-75 CNS, 47.3 µM; in the test with SR leukemia, above 100 µM; with HCC-2998 colon it was above 100 µM; in the test on HCT-15 colon it was above 100 µM; in the test with A549 NSCLC it was above 100 µM. Further, the TGI in the test with SF-268 CNS, with SF-295 CNS, in the test on HT29 colon, in the test with UACC-257 melanoma and in the test with 786-0 renal was above 100 µM in each case.
For `COc1ccc(N=NC(=Nc2ccccc2)c2ccc(N(CCC#N)CCC#N)cc2)cc1`, the TGI with SK-MEL-5 melanoma, in the test with SNB-75 CNS, in the test with SR leukemia, with HCC-2998 colon, in the test on HCT-15 colon and with A549 NSCLC was above 100 µM in each case. The TGI was above 100 µM in the test with SF-268 CNS; above 100 µM with SF-295 CNS; above 100 µM in the test on HT29 colon; 56.8 µM in the test with UACC-257 melanoma; above 100 µM in the test with 786-0 renal.
Consider `COC(=O)c1c(C)nc2c1cc(O)c1[nH]c(C)c(C)nc12`, for which the TGI in the test with SK-MEL-5 melanoma was above 100 µM; with SNB-75 CNS it was 71.8 µM; in the test on SR leukemia, above 100 µM; in the test with HCC-2998 colon it was above 100 µM; with HCT-15 colon, above 100 µM; in the test with A549 NSCLC, above 100 µM. Besides, the TGI with SF-268 CNS, with SF-295 CNS, in the test with HT29 colon, in the test on UACC-257 melanoma and with 786-0 renal was above 100 µM throughout.
Take `O=C(/C=C/c1ccc2c(c1)OCO2)c1ccc(O)cc1`: the TGI was determined as 29.1 µM in the test with SK-MEL-5 melanoma; 75.7 µM in the test with SNB-75 CNS; 4.96 µM in the test on SR leukemia; 32.1 µM in the test with HCC-2998 colon; 27.5 µM in the test on HCT-15 colon; 50.7 µM with A549 NSCLC. Moreover, the TGI in the test with SF-268 CNS is above 100 µM; in the test on SF-295 CNS, 32.6 µM; in the test on HT29 colon, 29.8 µM; in the test with UACC-257 melanoma, 28.8 µM; with 786-0 renal, 3.01 µM.
With `Cc1ccccc1OC(C)C(=O)NN1C(=O)CSC1c1ccccc1` (configuration not stated), the TGI with SK-MEL-5 melanoma was above 100 µM; in the test with SNB-75 CNS it was above 100 µM; with SR leukemia, 48.8 µM; in the test on HCC-2998 colon it was above 100 µM; in the test with HCT-15 colon, above 100 µM; with A549 NSCLC, above 100 µM. The TGI in the test on SF-268 CNS, in the test with SF-295 CNS, in the test with HT29 colon, in the test on UACC-257 melanoma and with 786-0 renal was above 100 µM throughout.
Take `COc1nncc2[nH]c(-c3ccccc3)cc12`: the TGI with SK-MEL-5 melanoma, in the test on SNB-75 CNS, with SR leukemia, with HCC-2998 colon, with HCT-15 colon and in the test with A549 NSCLC was above 100 µM throughout. The TGI in the test with SF-268 CNS, in the test on SF-295 CNS, in the test on HT29 colon, in the test on UACC-257 melanoma and in the test on 786-0 renal was above 100 µM each time.
As for `CC(=O)Oc1cccc2c1C(=O)CCCC2`, the TGI is above 100 µM with SK-MEL-5 melanoma; 4.78 µM in the test with SNB-75 CNS; above 100 µM in the test with SR leukemia; above 100 µM in the test on HCC-2998 colon; above 100 µM with HCT-15 colon; above 100 µM in the test with A549 NSCLC. Moreover, the TGI in the test with SF-268 CNS, in the test with SF-295 CNS, in the test with HT29 colon, in the test with UACC-257 melanoma and in the test on 786-0 renal was above 100 µM each time.
With `COc1cc(S(=O)(=O)Nc2nc(-c3ccc(N4C(=O)C(CC(=O)O)SC4c4cccs4)cc3)cs2)ccc1Cl` (configuration not stated), the TGI in the test with SK-MEL-5 melanoma is above 100 µM; with SNB-75 CNS, 40.4 µM; in the test with SR leukemia it was 79.1 µM; with HCC-2998 colon it was above 100 µM; in the test on HCT-15 colon, 39.8 µM; in the test with A549 NSCLC, above 100 µM. The TGI in the test with SF-268 CNS was 50.9 µM; in the test on SF-295 CNS, above 100 µM; with HT29 colon it was above 100 µM; in the test with UACC-257 melanoma, above 100 µM; in the test on 786-0 renal, above 100 µM.
Take `Cc1cc(C)nc(NS(=O)(=O)c2ccc(NC(=O)c3ccc4nc5ccccc5c(Nc5ccc(S(N)(=O)=O)cc5)c4c3)cc2)n1`: the TGI with SK-MEL-5 melanoma, with SNB-75 CNS, in the test with SR leukemia, in the test with HCC-2998 colon, with HCT-15 colon and in the test on A549 NSCLC was above 100 µM in each case. Moreover, the TGI in the test on SF-268 CNS, with SF-295 CNS, in the test with HT29 colon, in the test on UACC-257 melanoma and in the test on 786-0 renal was above 100 µM throughout.
Take `CC(=O)/C=C/C1=C(C)CCCC1(C)CC(C)C` (configuration not stated): the TGI with SK-MEL-5 melanoma was 49.1 µM; in the test on SNB-75 CNS, 93 µM; in the test with SR leukemia, 36.8 µM; in the test on HCC-2998 colon it was 35.7 µM; in the test on HCT-15 colon, 30.9 µM; in the test on A549 NSCLC it was above 100 µM. Further, the TGI with SF-268 CNS is above 100 µM; in the test with SF-295 CNS it was above 100 µM; in the test on HT29 colon, 87.5 µM; with UACC-257 melanoma, 84 µM; in the test with 786-0 renal it was 45.2 µM.
